In paper PMC5061434, “Bacterial Expression, Purification and In Vitro Phosphorylation of Full-Length Ribosomal S6 Kinase 2 (RSK2)” (PLoS ONE, 2016):
pIC50: −log10 of the molar value.

How the values were obtained:
[1] = molecular target: T1, Ribosomal S6 kinase 2 (RSK2) (Mus musculus, UniProt P18654); experiment: ADP-Glo kinase assay with S6 peptide at […] ATP; also thermal shift (SYPRO Orange, ~[…]°C); assay type: biochemical
T1 construct: gene Rps6ka3; full-length mouse RSK2 (amino acids 1–740), expressed in E. coli, phosphorylated in vitro by ERK2 and PDK1
T1 sequence (P18654 whole entry, the tested form may be a part): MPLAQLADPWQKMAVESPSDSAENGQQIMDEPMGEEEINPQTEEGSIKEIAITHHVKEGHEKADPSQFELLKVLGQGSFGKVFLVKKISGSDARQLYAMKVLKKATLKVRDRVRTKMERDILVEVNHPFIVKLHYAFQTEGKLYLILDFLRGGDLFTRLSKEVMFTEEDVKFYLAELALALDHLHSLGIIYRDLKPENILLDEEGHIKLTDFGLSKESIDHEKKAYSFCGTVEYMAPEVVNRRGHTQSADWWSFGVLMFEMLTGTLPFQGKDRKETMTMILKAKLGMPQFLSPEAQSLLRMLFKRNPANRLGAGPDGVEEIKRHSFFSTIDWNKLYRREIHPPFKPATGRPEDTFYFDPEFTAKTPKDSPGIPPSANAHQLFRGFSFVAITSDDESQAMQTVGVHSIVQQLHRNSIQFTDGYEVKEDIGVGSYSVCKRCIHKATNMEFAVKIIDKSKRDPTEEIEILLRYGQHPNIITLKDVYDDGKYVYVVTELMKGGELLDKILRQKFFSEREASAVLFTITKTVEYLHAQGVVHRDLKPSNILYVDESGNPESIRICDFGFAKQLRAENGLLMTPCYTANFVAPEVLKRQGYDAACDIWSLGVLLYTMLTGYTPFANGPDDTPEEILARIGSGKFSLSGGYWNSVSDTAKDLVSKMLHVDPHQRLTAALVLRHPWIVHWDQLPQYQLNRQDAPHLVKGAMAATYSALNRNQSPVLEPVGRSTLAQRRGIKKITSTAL

[2] = molecular target: full-length murine ribosomal S6 kinase 2 (RSK2) (mouse) (UniProt P18654); experiment: dynamic light scattering; RSK2 at ~0.7 mg/ml, 10°C, 50 mM Tris pH 8.0, 500 mM NaCl, 5 mM 2-mercaptoethanol; dimer of monomers

pIC50 [1] | stoichiometry N [2] | Compound
~5.10 |  | CC(=O)O[C@@H]1[C@@H](OC(C)=O)[C@@H](O)[C@H](Oc2c(-c3ccc(O)cc3)oc3cc(O)cc(O)c3c2=O)O[C@H]1C [SL0101]
 | 2 | full-length murine ribosomal S6 kinase 2 (RSK2) (from UniProt P18654 1-740) (enzyme)
